# Molecular target: p300 HAT domain (residues 1287-1666) (Homo sapiens (Human), UniProt Q09472)
# Assay: p300 HAT SPA assay (scintillation proximity assay, acetylation of biotinylated H3(1-21) peptide)
# Type: biochemical
# Settings: p300 HAT domain; average of at least 2 replicate titrations; read-out: P300 HAT SPA IC50
# Outline: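 Scintillation proximity readout of acetylated biotin-H3(1-21) captured on streptavidin plates after 1.5 hr at RT; enzyme was Ni2+/anion-exchange-purified HAT domain in 20 mM Hepes pH 7.5. Inhibitor IC50s calculated from the data.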
# p300 HAT domain (residues 1287-1666), sequence (Q09472 1287-1666): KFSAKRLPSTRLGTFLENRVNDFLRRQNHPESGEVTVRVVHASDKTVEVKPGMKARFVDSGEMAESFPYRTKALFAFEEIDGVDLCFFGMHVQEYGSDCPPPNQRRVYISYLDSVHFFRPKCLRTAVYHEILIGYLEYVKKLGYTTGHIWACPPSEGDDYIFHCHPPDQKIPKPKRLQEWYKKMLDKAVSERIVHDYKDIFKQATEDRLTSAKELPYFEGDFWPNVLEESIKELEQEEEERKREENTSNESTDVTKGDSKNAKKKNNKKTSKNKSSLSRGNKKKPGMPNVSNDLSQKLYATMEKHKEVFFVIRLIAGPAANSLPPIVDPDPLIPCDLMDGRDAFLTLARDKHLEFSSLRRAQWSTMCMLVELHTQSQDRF
row,Structure (SMILES),IC50
1,"CNC(=O)c1cccc2c(C(=O)C(NCCc3ccc(Cl)cc3Cl)c3ccccc3)c[nH]c12 (single isomer, unassigned) [147 Isomer 1]",> 30 µM
2,"CN(C)C(=O)c1cccc2c(C(=O)C(NCCc3ccc(Cl)cc3Cl)c3ccccc3)c[nH]c12 (single isomer, unassigned) [148 Isomer 1]",> 30 µM
3,"CN(C)CCNC(=O)c1cccc2c(C(=O)C(NCCc3ccc(Cl)cc3Cl)c3ccccc3)c[nH]c12 (single isomer, unassigned) [149 Isomer 2]",11.6 µM
4,"COCCNC(=O)c1cccc2c(C(=O)C(NCCc3ccc(Cl)cc3Cl)c3ccccc3)c[nH]c12 (single isomer, unassigned) [150 Isomer 2]",> 30 µM
5,"CNC(=O)c1ccc2c(C(=O)C(NCCc3ccc(Cl)cc3Cl)c3ccccc3)c[nH]c2c1 (single isomer, unassigned) [151 Isomer 1]",11.5 µM
6,"CN(C)C(=O)c1ccc2c(C(=O)C(NCCc3ccc(Cl)cc3Cl)c3ccccc3)c[nH]c2c1 (single isomer, unassigned) [152 Isomer 1]",> 30 µM
7,"N#Cc1ccc(CCNC(C(=O)c2c[nH]c3cc(C(=O)NCC(F)(F)F)ccc23)c2ccccc2)cc1 (single isomer, unassigned) [157 Isomer 1]",1.2 µM
8,"CNC(=O)CCc1ccc2c(C(=O)C(NCCc3ccc(F)cc3)c3ccccc3)c[nH]c2c1 (single isomer, unassigned) [158 Isomer 2]",> 5 µM
9,"O=C(O)CCc1ccc2c(C(=O)C(NCCc3ccc(F)cc3)c3ccccc3)c[nH]c2c1 (single isomer, unassigned) [159 Isomer 1]",25.2 µM
10,"N#Cc1ccc(CCNC(C(=O)c2c[nH]c3cc(CC(=O)O)ccc23)c2ccccc2)cc1 (single isomer, unassigned) [160 Isomer 1]",> 5 µM
11,"N#Cc1ccc(CCNC(C(=O)c2c[nH]c3cc(CC(=O)O)ccc23)c2ccccc2)cc1 (single isomer, unassigned) [160 Isomer 2]",4.01 µM
12,"CC(C)(O)CNC(=O)c1ccc2c(C(=O)C(NCCc3ccc(C#N)cc3)c3ccccc3)c[nH]c2c1 (single isomer, unassigned) [161 Isomer 1]",3.35 µM
13,"N#Cc1ccc(CCNC(C(=O)c2c[nH]c3cc(C(=O)NC4CN(CC(F)(F)F)C4)ccc23)c2ccccc2)cc1 (single isomer, unassigned) [162 Isomer 1]",4.86 µM
14,"N#Cc1ccc(CCNC(C(=O)c2c[nH]c3cc(C(=O)NC4CN(CC(F)(F)F)C4)ccc23)c2ccccc2)cc1 (single isomer, unassigned) [162 Isomer 2]",0.135 µM
15,"CCN1CC(NC(=O)c2ccc3c(C(=O)C(NCCc4ccc(C#N)cc4)c4ccccc4)c[nH]c3c2)C1 (single isomer, unassigned) [163 Isomer 1]",2.84 µM
16,"CCN(CC)C(=O)c1ccc2c(C(=O)C(NCCc3ccc(C#N)cc3)c3ccccc3)c[nH]c2c1 (single isomer, unassigned) [165 Isomer 1]",4.33 µM
17,"CCN(CC)C(=O)c1ccc2c(C(=O)C(NCCc3ccc(C#N)cc3)c3ccccc3)c[nH]c2c1 (single isomer, unassigned) [165 Isomer 2]",2.36 µM
18,"N#Cc1ccc(CCNC(C(=O)c2c[nH]c3cc(C(=O)NC4CS(=O)(=O)C4)ccc23)c2ccccc2)cc1 (single isomer, unassigned) [166 Isomer 1]",0.123 µM
19,"CC(C)NC(=O)c1ccc2c(C(=O)C(NCCc3ccc(C#N)cc3)c3ccccc3)c[nH]c2c1 (single isomer, unassigned) [167 Isomer 1]",0.0232 µM
20,"CC(C)NC(=O)c1ccc2c(C(=O)C(NCCc3ccc(C#N)cc3)c3ccccc3)c[nH]c2c1 (single isomer, unassigned) [167 Isomer 2]",0.746 µM
21,"C[C@H](O)CNC(=O)c1ccc2c(C(=O)C(NCCc3ccc(C#N)cc3)c3ccccc3)c[nH]c2c1 (single isomer, unassigned) [168 Isomer 1]",4.12 µM
22,"C[C@H](O)CNC(=O)c1ccc2c(C(=O)C(NCCc3ccc(C#N)cc3)c3ccccc3)c[nH]c2c1 (single isomer, unassigned) [168 Isomer 2]",0.0531 µM
23,"C[C@H](NC(=O)c1ccc2c(C(=O)C(NCCc3ccc(C#N)cc3)c3ccccc3)c[nH]c2c1)C(F)(F)F (single isomer, unassigned) [169 Isomer 1]",1.79 µM
24,"C[C@H](NC(=O)c1ccc2c(C(=O)C(NCCc3ccc(C#N)cc3)c3ccccc3)c[nH]c2c1)C(F)(F)F (single isomer, unassigned) [169 Isomer 2]",0.0871 µM
25,"C[C@@H](NC(=O)c1ccc2c(C(=O)C(NCCc3ccc(C#N)cc3)c3ccccc3)c[nH]c2c1)C(F)(F)F (single isomer, unassigned) [170 Isomer 1]",0.296 µM
26,"C[C@@H](NC(=O)c1ccc2c(C(=O)C(NCCc3ccc(C#N)cc3)c3ccccc3)c[nH]c2c1)C(F)(F)F (single isomer, unassigned) [170 Isomer 2]",4.11 µM
27,"N#Cc1ccc(CCNC(C(=O)c2c[nH]c3cc(C(=O)N4CCCC4)ccc23)c2ccccc2)cc1 (single isomer, unassigned) [171 Isomer 1]",> 5 µM

row,Structure (SMILES),IC50
1,"N#Cc1ccc(CCNC(C(=O)c2c[nH]c3cc(C(=O)N4CCCC4)ccc23)c2ccccc2)cc1 (single isomer, unassigned) [171 Isomer 2]",0.932 µM
2,"CN(C)C(=O)c1ccc2c(C(=O)C(NCCc3ccc(C#N)cc3)c3ccccc3)c[nH]c2c1 (single isomer, unassigned) [172 Isomer 1]",4.24 µM
3,"CN(C)C(=O)c1ccc2c(C(=O)C(NCCc3ccc(C#N)cc3)c3ccccc3)c[nH]c2c1 (single isomer, unassigned) [172 Isomer 2]",0.657 µM
4,"C[C@@H](O)CNC(=O)c1ccc2c(C(=O)C(NCCc3ccc(C#N)cc3)c3ccccc3)c[nH]c2c1 (single isomer, unassigned) [173 Isomer 1]",1.7 µM
5,"C[C@@H](O)CNC(=O)c1ccc2c(C(=O)C(NCCc3ccc(C#N)cc3)c3ccccc3)c[nH]c2c1 (single isomer, unassigned) [173 Isomer 2]",0.0211 µM
6,"CS(=O)(=O)CCCNC(=O)c1ccc2c(C(=O)C(NCCc3ccc(C#N)cc3)c3ccccc3)c[nH]c2c1 (single isomer, unassigned) [175 Isomer 1]",0.917 µM
7,"N#Cc1ccc(CCNC(C(=O)c2c[nH]c3cc(C(=O)NCCN4CCCC4)ccc23)c2ccccc2)cc1 (single isomer, unassigned) [176 Isomer 1]",0.0538 µM
8,"N#Cc1ccc(CCNC(C(=O)c2c[nH]c3cc(C(=O)NCCN4CCCC4)ccc23)c2ccccc2)cc1 (single isomer, unassigned) [176 Isomer 2]",1.11 µM
9,"Cn1cnc(-c2ccc3c(C(=O)[C@@H](NCCc4ccc(C(N)=O)cc4)c4ccccc4)c[nH]c3c2)c1 (single isomer, unassigned) [177 Isomer 1]",> 5 µM
10,"CN1CCC(c2ccc3c(C(=O)C(NCCc4ccc(C(N)=O)cc4)c4ccccc4)c[nH]c3c2)CC1 (single isomer, unassigned) [178 Isomer 1]",> 5 µM
11,"CN1CCC(c2ccc3c(C(=O)C(NCCc4ccc(C(N)=O)cc4)c4ccccc4)c[nH]c3c2)CC1 (single isomer, unassigned) [178 Isomer 2]",2.07 µM
12,"Cn1cc(-c2ccc3c(C(=O)C(NCCc4ccc(C(N)=O)cc4)c4ccccc4)cnn3c2)cn1 (single isomer, unassigned) [179 Isomer 2]",0.248 µM
13,"Cn1cc(-c2ccc3c(C(=O)C(NCCc4ccc(C(N)=O)cc4)c4ccccc4)c[nH]c3c2)nn1 (single isomer, unassigned) [180 Isomer 1]",4.33 µM
14,"NC(=O)c1ccc(CCNC(C(=O)c2c[nH]c3cc(-n4ccnc4)ccc23)c2ccccc2)cc1 (single isomer, unassigned) [181 Isomer 2]",> 5 µM
15,"NC(=O)c1ccc(CCNC(C(=O)c2c[nH]c3cc(-c4cnn(CCO)c4)ccc23)c2ccccc2)cc1 (single isomer, unassigned) [182 Isomer 1]",> 5 µM
16,"NC(=O)c1ccc(CCNC(C(=O)c2c[nH]c3cc(-c4cnn(CCO)c4)ccc23)c2ccccc2)cc1 (single isomer, unassigned) [182 Isomer 2]",0.514 µM
17,"COCCn1cc(-c2ccc3c(C(=O)C(NCCc4ccc(C(N)=O)cc4)c4ccccc4)c[nH]c3c2)cn1 (single isomer, unassigned) [183 Isomer 1]",> 5 µM
18,"COCCn1cc(-c2ccc3c(C(=O)C(NCCc4ccc(C(N)=O)cc4)c4ccccc4)c[nH]c3c2)cn1 (single isomer, unassigned) [183 Isomer 2]",0.717 µM
19,"Cc1nc(C(=O)C(NCCc2ccc(C(N)=O)cc2)c2ccccc2)c2ccc(-c3cnn(C)c3)cn12 (single isomer, unassigned) [184 Isomer 1]",0.672 µM
20,"Cc1nc(C(=O)C(NCCc2ccc(C(N)=O)cc2)c2ccccc2)c2ccc(-c3cnn(C)c3)cn12 (single isomer, unassigned) [184 Isomer 2]",0.522 µM
21,"O=C(c1c[nH]c2ccccc12)[C@@H](NCCc1ccc(-c2nn[nH]n2)cc1)c1ccccc1 (single isomer, unassigned) [185 Isomer 1]",1.1 µM
22,"O=C(c1c[nH]c2ccccc12)[C@@H](NCCc1ccc(-c2nn[nH]n2)cc1)c1ccccc1 (single isomer, unassigned) [185 Isomer 2]",> 30 µM
23,"O=C(c1c[nH]c2ccccc12)[C@@H](NCCc1ccc(-c2nnc[nH]2)cc1)c1ccccc1 (single isomer, unassigned) [186 Isomer 1]",1.97 µM
24,"O=C(c1c[nH]c2ccccc12)[C@@H](NCCc1ccc(-c2nnc[nH]2)cc1)c1ccccc1 (single isomer, unassigned) [186 Isomer 2]",3.54 µM
25,"Cn1cc(-c2ccc3c(C(=O)[C@@H](NCCc4ccc(N)nc4)c4ccccc4)c[nH]c3c2)cn1 (single isomer, unassigned) [187 Isomer 1]",> 5 µM
26,"Cn1cc(-c2ccc3c(C(=O)[C@@H](NCCc4ccc(N)nc4)c4ccccc4)c[nH]c3c2)cn1 (single isomer, unassigned) [187 Isomer 2]",0.793 µM

# — US11414384B2, “P300/CBP hat inhibitors” (Constellation Pharmaceuticals, Inc., priority 2018, dated 2022)
